What is called MIC is the least concentration at which growth counts as inhibited.

Each structure is given as a SMILES string. In brackets after ≈: the same amount, converted by molar mass.

The subject of the first test is M. tuberculosis H37Rv. In words: MIC vs. M. tuberculosis H37Rv, microplate Alamar Blue assay (MABA). In kind it is cell-based. Particulars: Mycobacterium tuberculosis, H37RV, Table 4; read-out: MIC. For orientation: Resazurin is reduced to fluorescent resorufin, in cell work by metabolically active cells.
In the case of `CC[C@H]1OC(=O)[C@H](C)[C@@H](OC2CC(C)(OC)C(O)C(C)O2)[C@H](C)[C@@H](OC2OC(C)CC(N(C)C)C2OC(=O)Nc2ccccc2)[C@](C)(OC)C[C@@H](C)C(=O)[C@H](C)[C@@H](O)[C@]1(C)O` (some centres unmarked) [Compound 3ZZ19], the MIC amounted to 12 µM (≈ 10.4 µg/mL).

The test is the same for the next values; noted with them: Table 1a, 11,12-carbamate derivatives; anti-TB activity; read-out: MIC.
For `CC[C@H]1OC(=O)[C@H](C)C(=O)[C@H](C)[C@@H](O[C@@H]2O[C@H](C)C[C@H](N(C)C)[C@H]2O)[C@](C)(OC)C[C@@H](C)C(=O)[C@H](C)[C@H]2N(NCCc3ccccc3)C(=O)O[C@]12C` [RU70645], the MIC stood at 14 µM (≈ 10.2 µg/mL). For the compound `CC[C@H]1OC(=O)[C@H](C)[C@@H](O[C@H]2CC(C)(OC)[C@@H](O)[C@H](C)O2)[C@H](C)[C@@H](O[C@@H]2O[C@H](C)C[C@H](N(C)C)[C@H]2O)[C@](C)(OC)C[C@@H](C)C(=O)[C@H](C)[C@H]2N(CCCCc3ccnc4ccccc34)C(=O)O[C@]12C` (some centres unmarked) [RU66080], the MIC was 0.44 µM (≈ 0.421 µg/mL).

The same test, now with this note: Table 2a, 11,12-diols; anti-TB activity; read-out: MIC.
Regarding `CC[C@H]1OC(=O)[C@H](C)C(=O)[C@H](C)[C@@H](O[C@@H]2O[C@H](C)C[C@H](N(C)C)[C@H]2O)[C@](C)(OC)C[C@@H](C)C(=O)[C@H](C)[C@@H](O)[C@]1(C)O` [RU56006], the MIC was above 128 µM.

The same test, now with this note: Table 3; parallel-synthesis carbazate library products, SPE purified; read-out: MIC.
Take `CC[C@H]1OC(=O)[C@H](C)[C@@H](O[C@H]2CC(C)(OC)[C@@H](O)[C@H](C)O2)[C@H](C)[C@@H](O[C@@H]2O[C@H](C)C[C@H](N(C)C)[C@H]2O)[C@](C)(OC)C[C@@H](C)C(=O)[C@H](C)[C@H]2N(NCC3CSN=N3)C(=O)O[C@]12C` (some centres unmarked) [G10′]: the MIC is reported as above 16 µM. In the case of `CC[C@H]1OC(=O)[C@H](C)[C@@H](O[C@H]2CC(C)(OC)[C@@H](O)[C@H](C)O2)[C@H](C)[C@@H](O[C@@H]2O[C@H](C)C[C@H](N(C)C)[C@H]2O)[C@](C)(OC)C[C@@H](C)C(=O)[C@H](C)[C@H]2N(NCc3c(C)[nH]c4ccc([N+](=O)[O-])cc34)C(=O)O[C@]12C` (some centres unmarked) [B11′], the MIC was above 22 µM.

As to `CC[C@H]1OC(=O)[C@H](C)[C@@H](O[C@H]2CC(C)(OC)[C@@H](O)[C@H](C)O2)[C@H](C)[C@@H](O[C@@H]2O[C@H](C)C[C@H](N(C)C)[C@H]2O)[C@](C)(OC)C[C@@H](C)C(=O)[C@H](C)[C@H]2N(NCc3c(C)noc3C)C(=O)O[C@]12C` (some centres unmarked) [C6′], the MIC is above 17 µM. The same measure, in the same setting: with `CC[C@H]1OC(=O)[C@H](C)[C@@H](O[C@H]2CC(C)(OC)[C@@H](O)[C@H](C)O2)[C@H](C)[C@@H](O[C@@H]2O[C@H](C)C[C@H](N(C)C)[C@H]2O)[C@](C)(OC)C[C@@H](C)C(=O)[C@H](C)[C@H]2N(NCc3c(-c4ccccc4)noc3C)C(=O)O[C@]12C` (some centres unmarked) [C10′] the figure was 12 µM (≈ 11.5 µg/mL); with `CC[C@H]1OC(=O)[C@H](C)[C@@H](O[C@H]2CC(C)(OC)[C@@H](O)[C@H](C)O2)[C@H](C)[C@@H](O[C@@H]2O[C@H](C)C[C@H](N(C)C)[C@H]2O)[C@](C)(OC)C[C@@H](C)C(=O)[C@H](C)[C@H]2N(NCc3c(Cl)cccc3Cl)C(=O)O[C@]12C` (some centres unmarked) [H1′], 11 µM (≈ 10.4 µg/mL); with `CC[C@H]1OC(=O)[C@H](C)[C@@H](O[C@H]2CC(C)(OC)[C@@H](O)[C@H](C)O2)[C@H](C)[C@@H](O[C@@H]2O[C@H](C)C[C@H](N(C)C)[C@H]2O)[C@](C)(OC)C[C@@H](C)C(=O)[C@H](C)[C@H]2N(NCc3ccnc4ccccc34)C(=O)O[C@]12C` (some centres unmarked) [D11′], 16 µM (≈ 14.9 µg/mL). The same measure, in the same setting: the figure for `CC[C@H]1OC(=O)[C@H](C)[C@@H](O[C@H]2CC(C)(OC)[C@@H](O)[C@H](C)O2)[C@H](C)[C@@H](O[C@@H]2O[C@H](C)C[C@H](N(C)C)[C@H]2O)[C@](C)(OC)C[C@@H](C)C(=O)[C@H](C)[C@H]2N(NCc3[nH]ncc3Br)C(=O)O[C@]12C` (some centres unmarked) [D1′] is 23 µM (≈ 21.8 µg/mL).

Take `CC[C@H]1OC(=O)[C@H](C)[C@@H](O[C@H]2CC(C)(OC)[C@@H](O)[C@H](C)O2)[C@H](C)[C@@H](O[C@@H]2O[C@H](C)C[C@H](N(C)C)[C@H]2O)[C@](C)(OC)C[C@@H](C)C(=O)[C@H](C)[C@H]2N(NCc3cccn3-c3ccc(Cl)cc3)C(=O)O[C@]12C` (some centres unmarked) [E12′]: the MIC is 3.4 µM (≈ 3.32 µg/mL). As for `CC[C@H]1OC(=O)[C@H](C)[C@@H](O[C@H]2CC(C)(OC)[C@@H](O)[C@H](C)O2)[C@H](C)[C@@H](O[C@@H]2O[C@H](C)C[C@H](N(C)C)[C@H]2O)[C@](C)(OC)C[C@@H](C)C(=O)[C@H](C)[C@H]2N(NCc3c[nH]c(=O)[nH]c3=O)C(=O)O[C@]12C` (some centres unmarked) [E8′], the MIC is above 20 µM.

Regarding `CC[C@H]1OC(=O)[C@H](C)[C@@H](O[C@H]2CC(C)(OC)[C@@H](O)[C@H](C)O2)[C@H](C)[C@@H](O[C@@H]2O[C@H](C)C[C@H](N(C)C)[C@H]2O)[C@](C)(OC)C[C@@H](C)C(=O)[C@H](C)[C@H]2N(/N=C/c3cnc(-c4ccccc4)nc3C)C(=O)O[C@]12C` (some centres unmarked) [E6′], the MIC amounted to 5 µM (≈ 4.84 µg/mL). Same read-out and setting: the figure for `CC[C@H]1OC(=O)[C@H](C)[C@@H](O[C@H]2CC(C)(OC)[C@@H](O)[C@H](C)O2)[C@H](C)[C@@H](O[C@@H]2O[C@H](C)C[C@H](N(C)C)[C@H]2O)[C@](C)(OC)C[C@@H](C)C(=O)[C@H](C)[C@H]2N(NCc3cc4ccccc4s3)C(=O)O[C@]12C` (some centres unmarked) [G2′] is 11 µM (≈ 10.3 µg/mL); for `CC[C@H]1OC(=O)[C@H](C)[C@@H](O[C@H]2CC(C)(OC)[C@@H](O)[C@H](C)O2)[C@H](C)[C@@H](O[C@@H]2O[C@H](C)C[C@H](N(C)C)[C@H]2O)[C@](C)(OC)C[C@@H](C)C(=O)[C@H](C)[C@H]2N(NC/C=C/c3ccccc3)C(=O)O[C@]12C` (some centres unmarked) [A4′] it is 7 µM (≈ 6.33 µg/mL); for `CCCCc1nc(CNN2C(=O)O[C@]3(C)[C@@H](CC)OC(=O)[C@H](C)[C@@H](O[C@H]4CC(C)(OC)[C@@H](O)[C@H](C)O4)[C@H](C)[C@@H](O[C@@H]4O[C@H](C)C[C@H](N(C)C)[C@H]4O)[C@](C)(OC)C[C@@H](C)C(=O)[C@H](C)[C@@H]23)c(Cl)[nH]1` (some centres unmarked) [B7′] it is above 19 µM. As for `CC[C@H]1OC(=O)[C@H](C)[C@@H](O[C@H]2CC(C)(OC)[C@@H](O)[C@H](C)O2)[C@H](C)[C@@H](O[C@@H]2O[C@H](C)C[C@H](N(C)C)[C@H]2O)[C@](C)(OC)C[C@@H](C)C(=O)[C@H](C)[C@H]2N(NCC3=Cc4ccccc4OC3)C(=O)O[C@]12C` (some centres unmarked) [G6′], the MIC is given as 11 µM (≈ 10.3 µg/mL).

Still in this test, the particulars now being: Table 5; read-out: MIC.
Regarding `C#CCON=C1C(C)CC(C)(OC)C(OC2OC(C)CC(N(C)C)C2O)C(C)C(OC2CC(C)(OC)C(O)C(C)O2)C(C)C(=O)OC(CC)C(C)(O)C(O)C1C` (centres unmarked) [Compound 1GY17], the MIC was found to be 13 µM (≈ 10.4 µg/mL). The same measure, in the same setting: the figure for `CCC1OC(=O)C(C)C(OC2CC(C)(OC)C(OC(C)=O)C(C)O2)C(C)C(OC2OC(C)CC(N(C)C)C2OC(C)=O)C(C)(OC)CC(C)C(=O)C(C)C2N(NCCCc3ccnc4ccccc34)C(=O)OC12C` (centres unmarked) [ITR0005] is 7.7 µM (≈ 8.02 µg/mL); for `CCC1OC(=O)C(C)C(OC2CC(C)(OC)C(O)C(C)O2)C(C)C(OC2OC(C)CC(N(C)C)C2O)C(C)(O)CC(C)C(=NN=Cc2ccc(C(F)(F)F)cc2)C(C)C(O)C1(C)O` (centres unmarked) [Compound 1OK95] it is 27 µM (≈ 24.4 µg/mL). Still for that read-out and setting: the figure for `CCC1OC(=O)C(C)C(OC2CC(C)(OC)C(O)C(C)O2)C(C)C(OC2OC(C)CC(N(C)C)C2O)C(C)(OC)CC(C)C(=NOC(C)(C)CC(C)=O)C(C)C(O)C1(C)O` (centres unmarked) [Compound 1GY27] is 31 µM (≈ 26.7 µg/mL); for `CCC1OC(=O)C(C)C(O)C(C)C(OC2OC(C)CC([N+](C)(C)Cc3ccccc3)C2OCc2ccccc2)C(C)(OC)CC(C)C(=NOCc2ccccc2)C(C)C(O)C1(C)O` (centres unmarked) [Compound 2GY11] it is 7.1 µM.

The values above are taken from patent US20060148730A1, “Method of treating tuberculosis” (priority 2003, published 2006).
